This passage reports T/C results from PubChem BioAssay AID292 (DTP/NCI, 2004).

Several values for one entry are separate records, joined by “and”; a condition that tells them apart may be missing. Equal values may be shown once. Inconclusive results and toxic doses are left out.

In the experiment the test system is B6C3F1 mice, ip Sarcoma M5076, median survival T/C. Kind of experiment: NCI In Vivo Anticancer Drug Screen. Data for tumor model Sarcoma M5076 (intraperitoneal) in B6C3F1 mice. The conditions noted are these: endpoint: median survival time, higher = longer survival. Here is the method:
The antitumor activity of compounds was measured in mice bearing transplantable tumors. Survival or tumor size were measured and the results are expressed as the measurement made in the treated group (T) divided by the measurement made in the vehicle treated control group (C). The tumor model used in this assay is Sarcoma M5076 (intraperitoneal) in B6C3F1 mice

Where [1] appears, read: dose: 50.0 mg/kg/injection, schedule: Q04DX004 (ip), vehicle: Klucel (hydroxypropylcellulose) (HPC).
The mark [2] stands for this setting: dose: 100.0 mg/kg/injection, schedule: Q04DX004 (ip), vehicle: Klucel (hydroxypropylcellulose) (HPC).
The mark [3] stands for this setting: dose: 200.0 mg/kg/injection, schedule: Q04DX004 (ip), vehicle: Klucel (hydroxypropylcellulose) (HPC).
Setting [4] is: dose: 400.0 mg/kg/injection, schedule: Q04DX004 (ip), vehicle: Klucel (hydroxypropylcellulose) (HPC).

Take `O=C(CN1CCOCC1)Nc1nc(-c2ccc(Cl)cc2)cs1`: the T/C reads like this: (dose: 6.25 mg/kg/injection, schedule: Q04DX004 (ip), vehicle: DMSO) 100 % of control; (dose: 12.5 mg/kg/injection, schedule: Q04DX004 (ip), vehicle: DMSO) 93 % of control; (dose: 25.0 mg/kg/injection, schedule: Q04DX004 (ip), vehicle: DMSO) 121 % of control; (dose: 25.0 mg/kg/injection, schedule: Q04DX004 (ip), vehicle: saline with Tween-80) 112 % of control; (dose: 50.0 mg/kg/injection, schedule: Q04DX004 (ip), vehicle: DMSO) 89 % of control; (dose: 50.0 mg/kg/injection, schedule: Q04DX004 (ip), vehicle: saline with Tween-80) 92 % of control. For the same compound, the T/C was 87 % of control and 92 % of control (dose: 100.0 mg/kg/injection, schedule: Q04DX004 (ip), vehicle: DMSO); 91 % of control (dose: 100.0 mg/kg/injection, schedule: Q04DX004 (ip), vehicle: saline with Tween-80); 98 % of control (dose: 200.0 mg/kg/injection, schedule: Q04DX004 (ip), vehicle: saline with Tween-80); 105 % of control (dose: 400.0 mg/kg/injection, schedule: Q04DX004 (ip), vehicle: saline with Tween-80).

In the case of `CN1C(=O)OC(c2ccc(Cl)cc2)C1=O` (stereo unspecified), the T/C by setting is: under setting [1], 92 % of control; under setting [2], 93 % of control; under setting [3], 94 % of control; under setting [4], 97 % of control.

For `O=C1CC2(C(=O)N1CN1CCOCC1)c1ccccc1-c1ccccc12`, the T/C was 113 % of control under setting [3] and 121 % of control under setting [4].

`CCC(/C=C/C1OC(=O)C=CC1C)=C\C(C)C/C=C/C(C)=C/C(C)C(=O)C(C)C(O)C(C)C/C(C)=C/C(=O)O` (stereo unspecified): the T/C (dose: 25.0 micrograms/kg/injection, schedule: Q04DX004 (ip), vehicle: other) was 104 % of control; the T/C (dose: 25.0 micrograms/kg/injection, schedule: Q04DX004 (ip), vehicle: saline + alcohol) is 162 % of control; the T/C (dose: 25.0 micrograms/kg/injection, schedule: Q04DX004 (ip), vehicle: saline) is 110 % of control and 111 % of control; the T/C (dose: 25.0 micrograms/kg/injection, schedule: Q04DX004 (iv), vehicle: saline) is 101 % of control; the T/C (dose: 50.0 micrograms/kg/injection, schedule: Q04DX004 (ip), vehicle: other) is 114 % of control; the T/C (dose: 50.0 micrograms/kg/injection, schedule: Q04DX004 (ip), vehicle: saline + alcohol) was 163 % of control and 175 % of control. Also, the T/C runs as follows: (dose: 50.0 micrograms/kg/injection, schedule: Q04DX004 (ip), vehicle: saline) 109 % of control and 114 % of control; (dose: 50.0 micrograms/kg/injection, schedule: Q04DX004 (iv), vehicle: saline) 104 % of control; (dose: 100.0 micrograms/kg/injection, schedule: Q04DX004 (ip), vehicle: other) 121 % of control; (dose: 100.0 micrograms/kg/injection, schedule: Q04DX004 (ip), vehicle: saline + alcohol) 166 % of control and 188 % of control; (dose: 100.0 micrograms/kg/injection, schedule: Q04DX004 (ip), vehicle: saline) 124 % of control; (dose: 100.0 micrograms/kg/injection, schedule: Q04DX004 (iv), vehicle: saline) 110 % of control. The T/C reads like this: (dose: 100.0 micrograms/kg/injection, schedule: Q04DX004 (sc), vehicle: other) 106 % of control; (dose: 200.0 micrograms/kg/injection, schedule: Q04DX004 (ip), vehicle: other) 121 % of control; (dose: 200.0 micrograms/kg/injection, schedule: Q04DX004 (ip), vehicle: saline + alcohol) 184 % of control and 195 % of control; (dose: 200.0 micrograms/kg/injection, schedule: Q04DX004 (ip), vehicle: saline) 124 % of control; (dose: 200.0 micrograms/kg/injection, schedule: Q04DX004 (iv), vehicle: saline) 102 % of control; (dose: 200.0 micrograms/kg/injection, schedule: Q04DX004 (sc), vehicle: other) 106 % of control. Further, the T/C reads like this: (dose: 400.0 micrograms/kg/injection, schedule: Q04DX004 (ip), vehicle: other) 152 % of control; (dose: 400.0 micrograms/kg/injection, schedule: Q04DX004 (ip), vehicle: saline + alcohol) 163 % of control and 184 % of control and 195 % of control; (dose: 400.0 micrograms/kg/injection, schedule: Q04DX004 (iv), vehicle: saline) 105 % of control; (dose: 400.0 micrograms/kg/injection, schedule: Q04DX004 (sc), vehicle: other) 106 % of control; (dose: 800.0 micrograms/kg/injection, schedule: Q04DX004 (ip), vehicle: saline + alcohol) 191 % of control and 217 % of control; (dose: 800.0 micrograms/kg/injection, schedule: Q04DX004 (ip), vehicle: saline) 152 % of control. The T/C runs as follows: (dose: 800.0 micrograms/kg/injection, schedule: Q04DX004 (iv), vehicle: saline) 116 % of control; (dose: 800.0 micrograms/kg/injection, schedule: Q04DX004 (sc), vehicle: other) 119 % of control.

As for `CCNC(=O)OCc1cnc(C)c(O)c1COC(=O)NCC`, the T/C was 97 % of control (dose: 50.0 mg/kg/injection, schedule: Q04DX004 (ip), vehicle: saline); 107 % of control (dose: 100.0 mg/kg/injection, schedule: Q04DX004 (ip), vehicle: saline); 108 % of control (dose: 200.0 mg/kg/injection, schedule: Q04DX004 (ip), vehicle: saline); 102 % of control (dose: 400.0 mg/kg/injection, schedule: Q04DX004 (ip), vehicle: saline).

In the case of `CCCCCCCC1C(=O)OC2CC3C(C)=CC(=O)C(O)C3(C)C3C4(O)OCC23C1C(C)C4O` (stereo unspecified), the T/C was 109 % of control (dose: 2.5 mg/kg/injection, schedule: Q04DX004 (ip), vehicle: Klucel (hydroxypropylcellulose) (HPC)); 108 % of control (dose: 5.0 mg/kg/injection, schedule: Q04DX004 (ip), vehicle: Klucel (hydroxypropylcellulose) (HPC)); 109 % of control (dose: 10.0 mg/kg/injection, schedule: Q04DX004 (ip), vehicle: Klucel (hydroxypropylcellulose) (HPC)); 106 % of control (dose: 20.0 mg/kg/injection, schedule: Q04DX004 (ip), vehicle: Klucel (hydroxypropylcellulose) (HPC)).

On to `O=C(O)Cc1cccc2c(=O)cc(-c3ccccc3)oc12`, for which the T/C was 98 % of control (dose: 6.25 mg/kg/injection, schedule: Q04DX004 (ip), vehicle: suspension in saline); 95 % of control (dose: 12.5 mg/kg/injection, schedule: Q04DX004 (ip), vehicle: suspension in saline); 102 % of control (dose: 25.0 mg/kg/injection, schedule: Q04DX004 (ip), vehicle: suspension in saline); 100 % of control (dose: 50.0 mg/kg/injection, schedule: Q04DX004 (ip), vehicle: suspension in saline); 102 % of control (dose: 100.0 mg/kg/injection, schedule: Q04DX004 (ip), vehicle: suspension in saline).

Take `N#CC1C(=O)NC(=O)C(C#N)C1c1ccc(Cl)cc1Cl` (stereo unspecified): the T/C is 93 % of control under setting [1], 95 % of control under setting [2], 100 % of control under setting [3] and 96 % of control under setting [4].

As to `N#CC1C(=O)NC(=O)C(C#N)C1CCc1ccccc1` (stereo unspecified), the T/C is 105 % of control (dose: 50.0 mg/kg/injection, schedule: Q04DX004 (ip), vehicle: Klucel + Tween-80); 97 % of control (dose: 100.0 mg/kg/injection, schedule: Q04DX004 (ip), vehicle: Klucel + Tween-80); 105 % of control (dose: 200.0 mg/kg/injection, schedule: Q04DX004 (ip), vehicle: Klucel + Tween-80).

In the case of `O=c1[nH]cnc2n[nH]nc12`, the T/C was 104 % of control (dose: 75.0 mg/kg/injection, schedule: Q04DX004 (ip), vehicle: Klucel (hydroxypropylcellulose) (HPC)); 94 % of control (dose: 150.0 mg/kg/injection, schedule: Q04DX004 (ip), vehicle: Klucel (hydroxypropylcellulose) (HPC)); 97 % of control (dose: 300.0 mg/kg/injection, schedule: Q04DX004 (ip), vehicle: Klucel (hydroxypropylcellulose) (HPC)); 95 % of control (dose: 600.0 mg/kg/injection, schedule: Q04DX004 (ip), vehicle: Klucel (hydroxypropylcellulose) (HPC)).
